This passage reports IC50 and Ratio IC50 results from ChEMBL document CHEMBL1139828, “Synthesis of 2,3-diaryl-1,3-thiazolidine-4-one derivatives as selective cyclooxygenase (COX-2) inhibitors” (Bioorg Med Chem Lett, 2007).

In test [1] the target is T1, Prostaglandin G/H synthase 2 (Homo sapiens, UniProt P35354).
T1 sequence (P35354 whole entry): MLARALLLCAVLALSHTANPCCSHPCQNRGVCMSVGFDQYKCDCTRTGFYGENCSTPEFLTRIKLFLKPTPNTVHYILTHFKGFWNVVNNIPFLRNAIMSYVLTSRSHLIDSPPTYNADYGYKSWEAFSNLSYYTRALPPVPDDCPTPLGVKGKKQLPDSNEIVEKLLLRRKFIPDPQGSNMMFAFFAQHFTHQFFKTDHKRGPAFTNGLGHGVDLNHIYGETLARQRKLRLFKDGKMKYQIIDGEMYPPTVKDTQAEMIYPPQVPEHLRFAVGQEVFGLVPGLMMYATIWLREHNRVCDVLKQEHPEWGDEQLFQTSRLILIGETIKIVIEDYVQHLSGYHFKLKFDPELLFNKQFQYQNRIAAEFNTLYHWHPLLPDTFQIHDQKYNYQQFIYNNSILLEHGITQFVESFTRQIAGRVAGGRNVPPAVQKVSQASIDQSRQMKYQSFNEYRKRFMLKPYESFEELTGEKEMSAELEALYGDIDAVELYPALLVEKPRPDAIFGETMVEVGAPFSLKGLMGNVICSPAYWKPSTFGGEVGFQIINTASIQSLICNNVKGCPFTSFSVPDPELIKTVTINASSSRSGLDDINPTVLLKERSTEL

The target of test [2] is Prostaglandin G/H synthase 1 (Homo sapiens, UniProt P23219).
The species named for a further test is Homo sapiens. The test can be described thus: Selectivity index, ratio of IC50 for […].

In general, IC50 refers to the concentration at which inhibition is half-maximal.

Sequence of Prostaglandin G/H synthase 1 (P23219 whole entry): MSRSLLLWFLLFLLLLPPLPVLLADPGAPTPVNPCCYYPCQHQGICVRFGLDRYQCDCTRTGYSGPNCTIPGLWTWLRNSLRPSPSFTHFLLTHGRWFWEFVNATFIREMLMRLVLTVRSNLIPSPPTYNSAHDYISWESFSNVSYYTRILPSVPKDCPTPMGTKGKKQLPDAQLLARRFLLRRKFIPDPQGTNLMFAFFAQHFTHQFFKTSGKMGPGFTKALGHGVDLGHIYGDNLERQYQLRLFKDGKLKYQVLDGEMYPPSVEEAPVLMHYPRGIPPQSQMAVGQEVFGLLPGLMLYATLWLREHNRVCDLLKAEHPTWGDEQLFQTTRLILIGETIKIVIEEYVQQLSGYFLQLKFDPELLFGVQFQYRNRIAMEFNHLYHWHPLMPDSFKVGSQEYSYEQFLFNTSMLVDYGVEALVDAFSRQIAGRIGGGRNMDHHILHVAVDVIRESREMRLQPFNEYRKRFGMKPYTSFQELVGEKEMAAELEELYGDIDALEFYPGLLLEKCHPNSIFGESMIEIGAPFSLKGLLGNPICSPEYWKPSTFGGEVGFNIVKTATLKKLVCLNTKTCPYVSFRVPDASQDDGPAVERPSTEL

As to `CS(=O)(=O)c1ccc(C2SCC(=O)N2c2ccccc2)cc1` (configuration not stated), the IC50 in test [1] stood at 200 nM; in test [2] it was 96100 nM. Besides, the Ratio IC50 in the test filed under Homo sapiens is 480.
As for `Cc1ccc(N2C(=O)CSC2c2ccc(S(C)(=O)=O)cc2)cc1` (configuration not stated), the IC50 is 150 nM in test [1] and 53900 nM in test [2]. In addition, the Ratio IC50 in the test listed under Homo sapiens was 359.
Consider `COc1ccc(N2C(=O)CSC2c2ccc(S(C)(=O)=O)cc2)cc1` (configuration not stated), for which the half-inhibitory concentration (IC50) is 160 nM in test [1] and over 100000 nM in test [2]. The Ratio IC50 in the test listed under Homo sapiens was over 625.
Take `CS(=O)(=O)c1ccc(C2SCC(=O)N2c2ccc(F)cc2)cc1` (configuration not stated): the concentration for half-maximal inhibition (IC50) in test [1] is 120 nM; in test [2], over 100000 nM. Further, the Ratio IC50 in the test filed under Homo sapiens was over 833.
